Experiments:
Format in all cases: binding
PTGFR = molecular target: T1, PTGFR (Homo sapiens, UniProt P43088); test: NanoBRET screen HiBiT-PTGFR in HEK293
T1 construct: purchased Promega (in-house HiBiT-GPCR construct library, NanoBRET)
Experimental: (§1) Each tracer candidate was screened across the entire library of HiBiT-GPCR constructs using NanoBRET as the detection modality. As depicted in Figure 4A, the specificity of interactions was evaluated through decrease in BRET due to competitive displacement of a bound tracer by excess parental compound. Each tracer was analyzed for binding to each HiBiT-GPCR fusion in the absence and in the presence of competing parental compound. Briefly, HEK293 cells were transfected with HiBiT-GPCR constructs diluted into promoterless DNA to reduce expression and maximize translocation to the cell surface. Each tracer candidate was then screened at concentrations of 1 μM and 0.1 μM across cells expressing these fusions. Cells were treated for 1.5 h with tracer either alone or in the presence of 20 μM competing parental compound (i.e., control). BRET was measured upon addition of purified LgBiT and subsequent complementation with HiBiT genetically fused to a GPCR. The specificity of interactions was assessed through a decrease in BRET signal due to competitive displacement of the bound tracer. To further gauge the robustness of these interactions, the fold response over the control (i.e., BRETtracer/BRETcontrol) was calculated. We chose a 1.5-fold response, which translates to ≥7-fold signal over noise as the minimal threshold required to score an interaction as positive. […]. Below we highlight the screening results obtained for our exemplary fluorescent tracers based on Clozapine, Amitriptyline and AZD1283.
(§2) HiBiT-GPCR DNA constructs were diluted in 10 mM Tris pH 8 to a final concentration of 0.01 μg/μL, arrayed in 96-well plates and stored at −20 °C. For transfection, HEK293 cells were suspended in Opti-MEM (without phenol red) supplemented with 2% fetal bovine serum (Seradigm) and 100 units/mL penicillin–streptomycin (Gibco) at a final concentration of 220,000 cells/mL and dispensed into white 96-well plates at 90 μL/well. Subsequent transfections and screens were carried using an Agilent Bravo Automated Liquid Handling Platform. First, the 96-well HiBiT DNA arrays were diluted 25-fold in Opti-MEM (without serum or phenol red) to a final concentration of 0.0004 μg/μL and 20 μL of the diluted DNAs were transferred into new 96-well plates. Next, promoterless carrier DNA (1 μg/μL) was diluted 25-fold (0.04 μg/μL) and then dispensed into the diluted arrays at 20 μL/well. Following brief mixing, Viafect transfection reagent (Promega) diluted 16-fold into Opti-MEM was dispensed into the plates at 40 μL/well. After mixing by pipetting, plates were incubated for 10 min on the pipetting station deck. The DNA-transfection reagent complexes were then added to plates containing cells. To facilitate the screen, 10 μL of DNA-transfection reagent complexes were added in duplicates to the top 4 and bottom 4 rows, resulting in two identical 48-well arrays per plate. Plates with transfected cells were incubated for 18–20 h at 37 °C/5% CO2. A screen of each tracer across the entire library using two different concentrations requires duplicate plates of transfected cells. Depending on the number of tracers being screened, transfections can be scaled up using the same ratios. The next day, for each tracer, four 20× screening solutions in tracer dilution buffer (Promega) were prepared: two duplicates at final concentration of 20 μM and two duplicates at a final concentration of 2 μM. A competing unmodified compound was added to one of each duplicate at a final concentration of 400 μM. The four resulting solutions were diluted 4-fold in Opti-MEM without serum or phenol red to generate 5× solutions (5 µM and 0.5 µM tracer +/− 100 μM competing compound). To screen the library, a BioTek MultiFlo FX liquid dispenser was used to dispense 22.5 µL of tracer solution to the top 4 rows and 22.5 µL tracer + competing compound solution to the 4 bottom rows. Plates were briefly mixed on an orbital shaker and incubated for 1.5 h at room temperature. […]

P2RY12 = molecular target: T2, P2RY12 (Homo sapiens, UniProt Q9H244); test: NanoBRET screen HiBiT-P2RY12 in HEK293
T2 construct: purchased Promega (in-house HiBiT-GPCR construct library, NanoBRET)
Experimental: as §1, §2

FPR2 = molecular target: T3, FPR2 (Homo sapiens, UniProt P25090); test: NanoBRET screen HiBiT-FPR2 in HEK293
T3 construct: purchased Promega (in-house HiBiT-GPCR construct library, NanoBRET)
T3 sequence (P25090 1-351): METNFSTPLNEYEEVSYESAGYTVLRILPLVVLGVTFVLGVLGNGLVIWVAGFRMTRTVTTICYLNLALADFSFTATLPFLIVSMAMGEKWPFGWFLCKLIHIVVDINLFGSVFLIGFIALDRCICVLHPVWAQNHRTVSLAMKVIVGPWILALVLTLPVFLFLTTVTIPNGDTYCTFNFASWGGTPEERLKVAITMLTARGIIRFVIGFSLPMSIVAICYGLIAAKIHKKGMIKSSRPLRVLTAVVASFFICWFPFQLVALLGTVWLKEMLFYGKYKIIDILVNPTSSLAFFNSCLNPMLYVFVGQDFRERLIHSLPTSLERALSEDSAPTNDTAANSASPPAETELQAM
Experimental: as §1, §2

NPBWR1 = molecular target: T4, NPBWR1 (Homo sapiens, UniProt P48145); test: NanoBRET screen HiBiT-NPBWR1 in HEK293
T4 construct: purchased Promega (in-house HiBiT-GPCR construct library, NanoBRET)
T4 sequence (P48145 1-328): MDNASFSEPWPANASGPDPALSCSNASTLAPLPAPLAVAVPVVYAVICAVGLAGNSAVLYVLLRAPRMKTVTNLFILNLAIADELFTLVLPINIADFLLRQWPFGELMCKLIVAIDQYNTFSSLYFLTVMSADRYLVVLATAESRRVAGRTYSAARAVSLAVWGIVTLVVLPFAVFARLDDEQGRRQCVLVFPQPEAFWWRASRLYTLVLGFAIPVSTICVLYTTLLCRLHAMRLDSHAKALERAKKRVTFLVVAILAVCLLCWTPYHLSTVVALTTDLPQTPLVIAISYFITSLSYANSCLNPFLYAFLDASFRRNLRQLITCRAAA
Experimental: as §1, §2

SSTR3 = molecular target: T5, SSTR3 (Homo sapiens, UniProt P32745); test: NanoBRET screen HiBiT-SSTR3 in HEK293
T5 construct: purchased Promega (in-house HiBiT-GPCR construct library, NanoBRET)
Experimental: as §1, §2

T2 sequence (Q9H244 whole entry, one chain of several): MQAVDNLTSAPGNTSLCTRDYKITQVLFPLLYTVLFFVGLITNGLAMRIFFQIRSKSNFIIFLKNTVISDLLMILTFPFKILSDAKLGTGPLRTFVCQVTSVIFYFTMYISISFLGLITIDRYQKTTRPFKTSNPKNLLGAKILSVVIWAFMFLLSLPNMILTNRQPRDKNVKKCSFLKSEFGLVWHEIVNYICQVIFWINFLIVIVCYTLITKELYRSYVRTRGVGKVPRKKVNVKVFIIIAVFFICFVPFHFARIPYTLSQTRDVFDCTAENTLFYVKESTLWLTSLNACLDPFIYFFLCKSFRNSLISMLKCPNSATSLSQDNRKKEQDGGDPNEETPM
T1 sequence (P43088 whole entry): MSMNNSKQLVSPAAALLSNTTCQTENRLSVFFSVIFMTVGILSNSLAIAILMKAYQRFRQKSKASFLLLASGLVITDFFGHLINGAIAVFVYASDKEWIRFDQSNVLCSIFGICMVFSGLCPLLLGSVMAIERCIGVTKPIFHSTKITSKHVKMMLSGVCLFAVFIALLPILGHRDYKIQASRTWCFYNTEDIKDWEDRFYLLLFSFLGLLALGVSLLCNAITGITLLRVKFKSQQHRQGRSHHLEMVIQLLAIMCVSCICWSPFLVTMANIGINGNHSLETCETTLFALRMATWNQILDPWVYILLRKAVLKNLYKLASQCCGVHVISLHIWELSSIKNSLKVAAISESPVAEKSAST
T5 sequence (P32745 whole entry): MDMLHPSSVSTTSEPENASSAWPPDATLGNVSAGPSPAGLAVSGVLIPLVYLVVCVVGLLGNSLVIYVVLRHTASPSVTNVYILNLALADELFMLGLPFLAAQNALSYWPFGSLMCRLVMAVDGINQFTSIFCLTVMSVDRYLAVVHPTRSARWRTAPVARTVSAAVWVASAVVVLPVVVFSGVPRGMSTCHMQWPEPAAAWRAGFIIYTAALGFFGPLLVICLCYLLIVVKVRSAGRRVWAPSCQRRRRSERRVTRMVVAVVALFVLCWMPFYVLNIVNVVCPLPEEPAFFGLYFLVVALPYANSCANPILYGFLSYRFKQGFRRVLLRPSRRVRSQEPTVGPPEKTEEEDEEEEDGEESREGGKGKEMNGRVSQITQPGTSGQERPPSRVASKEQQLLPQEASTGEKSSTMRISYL

| SMILES | NanoBRET Fold Response (PTGFR; PTGFR, tracer 0.1μM) | NanoBRET Fold Response (PTGFR; PTGFR, tracer 1μM) | NanoBRET Fold Response (P2RY12; P2RY12, tracer 0.1μM) | NanoBRET Fold Response (P2RY12; P2RY12, tracer 1μM) | NanoBRET Fold Response (FPR2; FPR2, tracer 0.1μM) | NanoBRET Fold Response (FPR2; FPR2, tracer 1μM) | NanoBRET Fold Response (NPBWR1; NPBWR1, tracer 0.1μM) | NanoBRET Fold Response (NPBWR1; NPBWR1, tracer 1μM) | NanoBRET Fold Response (SSTR3; SSTR3, tracer 0.1μM) | NanoBRET Fold Response (SSTR3; SSTR3, tracer 1μM) | further results |
| --- | --- | --- | --- | --- | --- | --- | --- | --- | --- | --- | --- |
| COc1ccc2[nH]c(-c3ccc(CNC(=O)CCOCCOCCOCCOCCNC(=O)CCc4ccc5n4[B-](F)(F)[N+]4=C(c6ccc[nH]6)C=CC4=C5)cc3)c(CCNC(C)=O)c2n1 [AzomelatoninICO9-2-NB590] |  |  |  |  |  |  |  |  |  |  | NanoBRET Fold Response (PTGFR; 0.1μM tracer): 0.97; NanoBRET Fold Response (PTGFR; 1μM tracer): 0.91; NanoBRET Fold Response (P2RY12; 0.1μM tracer): 1.15; NanoBRET Fold Response (P2RY12; 1μM tracer): 1.05; NanoBRET Fold Response (FPR2; 0.1μM tracer): 0.74; NanoBRET Fold Response (FPR2; 1μM tracer): 1.09; NanoBRET Fold Response (NPBWR1; 0.1μM tracer): 0.87; NanoBRET Fold Response (NPBWR1; 1μM tracer): 1.04; NanoBRET Fold Response (SSTR3; 0.1μM tracer): 0.94; NanoBRET Fold Response (SSTR3; 1μM tracer): 1.01 |
| O=C(CCc1ccc2n1[B-](F)(F)[N+]1=C(c3ccc[nH]3)C=CC1=C2)NCCOCCOCCNC(=O)OCCOCCN1CCN(C2=Nc3ccccc3Sc3ccccc32)CC1 [Quetiapine-a-2-NB590] | 1.00 | 1.06 | 0.99 | 0.92 | 1.06 | 0.82 | 1.01 | 1.04 | 0.96 | 0.74 |  |
| O=C(CCOCCOCCOCCOCCNC(=O)CCc1ccc2n1[B-](F)(F)[N+]1=C(c3ccc[nH]3)C=CC1=C2)NCCCN1CCN(C2=Nc3cc(Cl)ccc3Nc3ccccc32)CC1 [Clozapine-a-2-NB590] |  |  |  |  |  |  |  |  |  |  | NanoBRET Fold Response (PTGFR; PTGFR, 0.1μM tracer): 1.04; NanoBRET Fold Response (PTGFR; PTGFR, 1μM tracer): 1.02; NanoBRET Fold Response (P2RY12; P2RY12, 0.1μM tracer): 1.00; NanoBRET Fold Response (P2RY12; P2RY12, 1μM tracer): 0.94; NanoBRET Fold Response (FPR2; FPR2, 0.1μM tracer): 0.91; NanoBRET Fold Response (FPR2; FPR2, 1μM tracer): 1.34; NanoBRET Fold Response (NPBWR1; NPBWR1, 0.1μM tracer): 1.07; NanoBRET Fold Response (NPBWR1; NPBWR1, 1μM tracer): 1.03; NanoBRET Fold Response (SSTR3; SSTR3, 0.1μM tracer): 0.91; NanoBRET Fold Response (SSTR3; SSTR3, 1μM tracer): 1.05 |
| N#CN=C(NCCCOc1cccc(CN2CCCCC2)c1)NCCNC(=O)CCOCCOCCOCCOCCNC(=O)CCc1ccc2n1[B-](F)(F)[N+]1=C(c3ccc[nH]3)C=CC1=C2 [Aminopotentidine-2-NB590] | 0.99 | 0.93 | 0.94 | 0.99 | 0.95 | 1.10 | 0.94 | 0.95 | 1.03 | 0.99 |  |
| O=C(CCc1ccc2n1[B-](F)(F)[N+]1=C(c3ccc[nH]3)C=CC1=C2)NCc1ccc(C(=O)NCCOCCOCCNCC(O)COc2cccc3ccccc23)cc1 (stereo not shown) [Propranolol-3-NB590] |  |  |  |  |  |  |  |  |  |  | NanoBRET Fold Response (PTGFR; PTGFR, 0.1μM): 0.97; NanoBRET Fold Response (PTGFR; PTGFR, 1μM): 1.00; NanoBRET Fold Response (P2RY12; P2RY12, 0.1μM): 1.02; NanoBRET Fold Response (P2RY12; P2RY12, 1μM): 0.94; NanoBRET Fold Response (FPR2; FPR2, 0.1μM): 1.02; NanoBRET Fold Response (FPR2; FPR2, 1μM): 1.12; NanoBRET Fold Response (NPBWR1; NPBWR1, 0.1μM): 1.03; NanoBRET Fold Response (NPBWR1; NPBWR1, 1μM): 0.96; NanoBRET Fold Response (SSTR3; SSTR3, 0.1μM): 0.99; NanoBRET Fold Response (SSTR3; SSTR3, 1μM): 1.01 |
| O=C(CCc1ccc2n1[B-](F)(F)[N+]1=C(c3ccc[nH]3)C=CC1=C2)NCc1ccc(C(=O)NCCOCCC(=O)N[C@@H]2CC[C@@]3(O)[C@H]4Cc5ccc(O)c6c5[C@@]3(CCN4CC3CC3)[C@H]2O6)cc1 [Naltrexone-3-NB590] | 1.10 | 0.91 | 1.30 | 0.88 | 0.87 | 0.66 | 0.92 | 1.19 | 0.97 | 1.01 |  |
| COc1ccccc1N1CCN(CCCCN2C(=O)c3ccc(CNC(=O)CCOCCNC(=O)c4ccc(CNC(=O)CCc5ccc6n5[B-](F)(F)[N+]5=C(c7ccc[nH]7)C=CC5=C6)cc4)cc3C2=O)CC1 [NAN-190-3-NB590] | 0.96 | 0.90 | 1.12 | 1.10 | 1.35 | 0.77 | 0.92 | 0.91 | 1.07 | 0.93 |  |
| Cc1cc2c(s1)Nc1ccccc1N=C2N1CCN(CCCNC(=O)CCOCCOCCOCCOCCNC(=O)CCc2ccc3n2[B-](F)(F)[N+]2=C(c4ccc[nH]4)C=CC2=C3)CC1 [Olanzapine-a-2-NB590] | 1.03 | 1.07 | 0.98 | 0.97 | 0.70 | 0.80 | 0.99 | 1.02 | 0.99 | 1.04 |  |
| CCCn1c(=O)c2[nH]c(-c3ccc(OCC(=O)NCCNC(=O)CCOCCNC(=O)c4ccc(CNC(=O)CCc5ccc6n5[B-](F)(F)[N+]5=C(c7ccc[nH]7)C=CC5=C6)cc4)cc3)nc2n(CCC)c1=O [XAC-3-NB590] | 1.02 | 0.98 | 0.91 | 1.04 | 0.89 | 0.95 | 1.03 | 0.96 | 0.99 | 0.98 |  |
| COc1ccc2c(n1)c(CCNC(C)=O)cn2CCNC(=O)CCc1ccc2n1[B-](F)(F)[N+]1=C(c3ccc[nH]3)C=CC1=C2 [Azamelatonin-1-NB590] |  |  |  |  |  |  |  |  |  |  | NanoBRET Fold Response (PTGFR; 0.1μM tracer): 1.13; NanoBRET Fold Response (PTGFR; 1μM tracer): 0.90; NanoBRET Fold Response (P2RY12; 0.1μM tracer): 1.02; NanoBRET Fold Response (P2RY12; 1μM tracer): 1.02; NanoBRET Fold Response (FPR2; 0.1μM tracer): 0.96; NanoBRET Fold Response (FPR2; 1μM tracer): 1.50; NanoBRET Fold Response (NPBWR1; 0.1μM tracer): 0.88; NanoBRET Fold Response (NPBWR1; 1μM tracer): 0.84; NanoBRET Fold Response (SSTR3; 0.1μM tracer): 1.03; NanoBRET Fold Response (SSTR3; 1μM tracer): 1.08 |

Reference: article PMC8151276, “An Integrated Approach toward NanoBRET Tracers for Analysis of GPCR Ligand Engagement” (Molecules, 2021)
